Results from ChEMBL document CHEMBL4765450, “The components and activities analysis of a novel anticoagulant candidate dHG-5” (Eur J Med Chem, 2020).
Activity calls are given as the source filed them. The calls are words filed in the database; no cut-off is given here.

How the values were obtained:
[1] = molecular target: Prothrombin (Homo sapiens) (UniProt P00734); test: Inhibition of factor 2a (unknown origin) at IC90 preincubated for 1 min followed by chromogenic substrate addition and measured for 2 mins in presence of AT-III; details: time 3.0 min
[2] = molecular target: T1, Coagulation factor IX/VIII (Homo sapiens) (UniProt P00740+P00451); test: Inhibition of human citrated plasma iXase (factor 8a-factor 9a complex) assessed as activity potency of oligosaccharides multiplied by the percentage of oligosaccharides in dHG-5 preincubated for 2 mins followed by factor 10 addition and measured after 1 min by FXa chromogenic substrate SXa-11 based assay relative to dHG-5; type: protein-complex assay; details: time 3.0 min
[3] = molecular target: Coagulation factor XI (Homo sapiens) (UniProt P03951); test: Inhibition of factor 11a (unknown origin) at IC50 using S-2366 as substrate preincubated for 1 min followed by chromogenic substrate addition and measured for 2 mins; details: time 3.0 min
[4] = molecular target: Coagulation factor X (Homo sapiens) (UniProt P00742); test: Inhibition of factor 10a (unknown origin) at IC90 preincubated for 1 min followed by chromogenic substrate addition and measured for 2 mins in presence of AT-III relative to control; details: time 3.0 min
[5] = molecular target: Prothrombin (Homo sapiens) (UniProt P00734); test: Inhibition of factor 2a (unknown origin) at IC50 preincubated for 1 min followed by chromogenic substrate addition and measured for 2 mins; details: time 3.0 min
[6] = molecular target: T2, Coagulation factor IX (Homo sapiens, UniProt P00740); test: Inhibition of factor 9a (unknown origin) binding to immobilized biotinylated oHG-11 assessed as activity potency of oligosaccharides multiplied by the percentage of oligosaccharides in dHG-5 by biolayer interferometry relative to dHG-5
[7] = molecular target: Coagulation factor XI (Homo sapiens) (UniProt P03951); test: Inhibition of factor 11a (unknown origin) at IC90 using S-2366 as substrate preincubated for 1 min followed by chromogenic substrate addition and measured for 2 mins in presence of AT-III; details: time 3.0 min
[8] = molecular target: Coagulation factor X (Homo sapiens) (UniProt P00742); test: Inhibition of factor 10a (unknown origin) at IC50 preincubated for 1 min followed by chromogenic substrate addition and measured for 2 mins; details: time 3.0 min
[9] = molecular target: Coagulation factor XI (Homo sapiens) (UniProt P03951); test: Inhibition of factor 11a (unknown origin) at IC50 using S-2366 as substrate preincubated for 1 min followed by chromogenic substrate addition and measured for 2 mins in presence of AT-III; details: time 3.0 min
[10] = tested on: Plasma; test: Induction of platelet aggregation in rat wash platelet at plasma peak concentration of 10 times anti-thrombosis ED50 measured after 10 mins by light transmission aggregometry
[11] = molecular target: Coagulation factor X (Homo sapiens) (UniProt P00742); test: Inhibition of factor 10a (unknown origin) at IC50 preincubated for 1 min followed by chromogenic substrate addition and measured for 2 mins in presence of AT-III; details: time 3.0 min
[12] = tested on: Plasma; test: Anticoagulation activity in human plasma assessed as drug level causing 20 times doubling of APTT preincubated for 2 mins followed by APTT reagent and measured after 3 mins by coagulometric method relative to dHG-5; type: functional; details: time 5 min
[13] = tested on: Rattus norvegicus; test: Antithrombotic activity in thromboplastin and stasis-induced Sprague-Dawley rat deep venous thrombosis model assessed as reduction in venous thrombosis by measuring activity potency of oligosaccharides multiplied by the percentage of oligosaccharides in dHG-5 at 1.52 mg/kg, sc administered 1 hr prior to thromboplastin addition for 20 secs followed by establishment of stasis for 20 mins relative …; type: functional; details: time 80.33 min, 1.339 h
[14] = molecular target: T1, Coagulation factor IX/VIII (Homo sapiens); test: Inhibition of human citrated plasma iXase (factor 8a-factor 9a complex) preincubated for 2 mins followed by factor 10 addition and measured after 1 min by FXa chromogenic substrate SXa-11 based assay relative to dHG-5; type: protein-complex assay; details: time 3.0 min
[15] = molecular target: T2, Coagulation factor IX; test: Inhibition of factor 9a (unknown origin) binding to immobilized biotinylated oHG-11 by biolayer interferometry relative to dHG-5
[16] = tested on: Rattus norvegicus; test: Antithrombotic activity in thromboplastin and stasis-induced Sprague-Dawley rat deep venous thrombosis model assessed as reduction in venous thrombosis at 1.52 mg/kg, sc administered 1 hr prior to thromboplastin addition for 20 secs followed by establishment of stasis for 20 mins relative to dHG-5; type: functional; details: time 80.33 min, 1.339 h
[17] = tested on: Rattus norvegicus; test: Antithrombotic activity in thromboplastin and stasis-induced Sprague-Dawley rat deep venous thrombosis model assessed as reduction in venous thrombosis at 1.52 mg/kg, sc administered 1 hr prior to thromboplastin addition for 20 secs followed by establishment of stasis for 20 mins; type: functional; details: 1.339 h, time 80.33 min
[18] = tested on: Plasma; test: Anticoagulation activity in HCII-deficient human plasma preincubated for 2 mins followed by APTT reagent and measured after 3 mins by coagulometric method; type: functional, cell-free; details: time 5.0 min
[19] = tested on: Plasma; test: Induction of platelet aggregation in human platelet rich plasma at plasma peak concentration of 10 times anti-thrombosis ED50 measured after 10 mins by light transmission aggregometry
[20] = molecular target: Prothrombin (Homo sapiens) (UniProt P00734); test: Inhibition of factor 2a (unknown origin) at IC50 preincubated for 1 min followed by chromogenic substrate addition and measured for 2 mins in presence of AT-III; details: time 3.0 min
[21] = tested on: Plasma; test: Anticoagulation activity in human plasma assessed as drug level causing 20 times doubling of APTT by measuring activity potency of oligosaccharides multiplied by the percentage of oligosaccharides in dHG-5 preincubated for 2 mins followed by APTT reagent and measured after 3 mins by coagulometric method relative to dHG-5; type: functional; details: time 5 min
[22] = molecular target: T3, Coagulation factor VII (Homo sapiens) (UniProt P08709); test: Inhibition of factor 7a (unknown origin) at IC50 using pefachrome factor VIIa as substrate preincubated for 1 min followed by chromogenic substrate addition and measured for 2 mins in presence of AT-III; details: time 3.0 min
T3 sequence (whole entry): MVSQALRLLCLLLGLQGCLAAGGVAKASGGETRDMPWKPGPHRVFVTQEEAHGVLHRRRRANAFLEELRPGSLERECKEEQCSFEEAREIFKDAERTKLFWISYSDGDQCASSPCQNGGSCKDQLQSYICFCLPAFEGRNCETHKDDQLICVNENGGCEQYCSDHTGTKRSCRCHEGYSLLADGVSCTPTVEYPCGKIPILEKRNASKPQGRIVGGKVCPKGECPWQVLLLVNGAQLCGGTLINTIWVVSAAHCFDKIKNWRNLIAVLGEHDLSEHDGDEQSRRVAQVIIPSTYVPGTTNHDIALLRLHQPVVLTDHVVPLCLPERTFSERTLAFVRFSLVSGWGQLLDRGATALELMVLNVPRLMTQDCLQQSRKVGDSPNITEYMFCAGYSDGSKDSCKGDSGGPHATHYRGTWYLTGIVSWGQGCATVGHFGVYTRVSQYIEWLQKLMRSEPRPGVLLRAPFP

[23] = molecular target: T4, Coagulation factor XII (Homo sapiens) (UniProt P00748); test: Inhibition of factor 12a (unknown origin) at IC50 using kallikrein chromogenic substrate preincubated for 1 min followed by chromogenic substrate addition and measured for 2 mins in presence of AT-III; details: time 3.0 min
T4 sequence (whole entry): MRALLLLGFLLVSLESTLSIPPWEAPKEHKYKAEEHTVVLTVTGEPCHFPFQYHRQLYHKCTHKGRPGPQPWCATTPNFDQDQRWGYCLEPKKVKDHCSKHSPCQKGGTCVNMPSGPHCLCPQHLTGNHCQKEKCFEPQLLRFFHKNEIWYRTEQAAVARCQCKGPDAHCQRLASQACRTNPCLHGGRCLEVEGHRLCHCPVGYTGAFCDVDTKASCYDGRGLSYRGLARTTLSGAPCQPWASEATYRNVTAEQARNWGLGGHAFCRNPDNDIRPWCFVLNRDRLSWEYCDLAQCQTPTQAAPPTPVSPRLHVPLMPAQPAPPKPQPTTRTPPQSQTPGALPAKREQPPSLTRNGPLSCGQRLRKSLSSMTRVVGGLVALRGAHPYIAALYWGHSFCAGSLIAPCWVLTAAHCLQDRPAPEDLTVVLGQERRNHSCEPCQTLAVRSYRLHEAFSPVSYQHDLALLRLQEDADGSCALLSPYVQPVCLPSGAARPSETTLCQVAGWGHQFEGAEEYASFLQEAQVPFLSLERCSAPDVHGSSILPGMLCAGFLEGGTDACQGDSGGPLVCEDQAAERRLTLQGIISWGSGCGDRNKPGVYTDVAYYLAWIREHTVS

[24] = molecular target: T4, Coagulation factor XII (Homo sapiens); test: Inhibition of factor 12a (unknown origin) at IC50 using kallikrein chromogenic substrate preincubated for 1 min followed by chromogenic substrate addition and measured for 2 mins; details: time 3.0 min
[25] = molecular target: T3, Coagulation factor VII (Homo sapiens); test: Inhibition of factor 7a (unknown origin) at IC50 using pefachrome factor VIIa as substrate preincubated for 1 min followed by chromogenic substrate addition and measured for 2 mins; details: time 3.0 min
[26] = tested on: Plasma; test: Anticoagulation activity in AT-III-deficient human plasma preincubated for 2 mins followed by APTT reagent and measured after 3 mins by coagulometric method; type: functional, cell-free; details: time 5.0 min

Sequence of Coagulation factor XI (Homo sapiens) (P03951 19-387 limits assumed): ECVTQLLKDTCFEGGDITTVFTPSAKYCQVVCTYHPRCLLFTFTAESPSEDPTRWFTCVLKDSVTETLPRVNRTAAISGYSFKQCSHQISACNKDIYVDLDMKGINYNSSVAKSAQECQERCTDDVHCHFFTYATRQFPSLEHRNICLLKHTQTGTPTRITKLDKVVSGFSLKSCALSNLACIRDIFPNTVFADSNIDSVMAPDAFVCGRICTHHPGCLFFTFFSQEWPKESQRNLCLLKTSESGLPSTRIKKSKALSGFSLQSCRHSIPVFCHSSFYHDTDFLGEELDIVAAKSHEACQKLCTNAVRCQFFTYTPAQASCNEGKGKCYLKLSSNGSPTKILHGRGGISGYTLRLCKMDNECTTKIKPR
Sequence of Coagulation factor XI (Homo sapiens) (P03951 388-625 limits assumed): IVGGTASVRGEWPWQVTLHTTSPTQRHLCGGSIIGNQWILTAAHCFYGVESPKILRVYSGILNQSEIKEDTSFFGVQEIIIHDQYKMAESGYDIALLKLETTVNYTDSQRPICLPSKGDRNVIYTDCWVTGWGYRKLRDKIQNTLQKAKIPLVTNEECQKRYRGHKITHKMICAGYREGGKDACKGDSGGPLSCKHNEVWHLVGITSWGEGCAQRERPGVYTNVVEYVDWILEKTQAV
Sequence of Coagulation factor X (Homo sapiens) (P00742 41-179 limits assumed): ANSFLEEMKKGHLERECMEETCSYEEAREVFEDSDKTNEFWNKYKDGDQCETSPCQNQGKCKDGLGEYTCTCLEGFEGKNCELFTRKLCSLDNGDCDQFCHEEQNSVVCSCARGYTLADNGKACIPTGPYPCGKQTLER
Sequence of Coagulation factor X (Homo sapiens) (P00742 235-488 limits assumed): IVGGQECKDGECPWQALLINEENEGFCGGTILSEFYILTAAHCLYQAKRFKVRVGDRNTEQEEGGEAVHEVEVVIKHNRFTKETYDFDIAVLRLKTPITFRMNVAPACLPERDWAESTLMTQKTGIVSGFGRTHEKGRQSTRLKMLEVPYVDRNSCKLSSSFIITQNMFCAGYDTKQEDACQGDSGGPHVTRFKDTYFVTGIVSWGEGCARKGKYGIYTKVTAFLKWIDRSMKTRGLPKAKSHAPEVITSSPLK
T2 sequence (P00740 47-191 limits assumed): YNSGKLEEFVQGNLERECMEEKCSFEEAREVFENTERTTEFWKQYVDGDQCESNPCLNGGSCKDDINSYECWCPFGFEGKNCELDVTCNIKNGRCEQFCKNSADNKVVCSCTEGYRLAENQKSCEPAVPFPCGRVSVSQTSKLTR
T2 sequence (P00740 227-461 limits assumed): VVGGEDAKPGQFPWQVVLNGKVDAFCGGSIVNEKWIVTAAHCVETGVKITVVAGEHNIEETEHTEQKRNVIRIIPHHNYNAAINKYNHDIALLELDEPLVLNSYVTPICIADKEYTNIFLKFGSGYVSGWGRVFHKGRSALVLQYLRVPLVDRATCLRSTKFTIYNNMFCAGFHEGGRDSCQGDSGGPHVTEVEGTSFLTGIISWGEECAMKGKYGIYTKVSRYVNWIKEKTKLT

## CC(=O)N[C@H]1[C@H](O[C@@H]([C@H](O[C@@H]2O[C@@H](C)[C@@H](OS(=O)(=O)[O-])[C@@H](OS(=O)(=O)O)[C@@H]2O)[C@@H](O)CO)[C@H](O)C(=O)[O-])O[C@H](COS(=O)(=O)[O-])[C@H](OS(=O)(=O)[O-])[C@@H]1O[C@@H]1O[C@H](C(=O)[O-])[C@@H](O[C@@H]2O[C@H](COS(=O)(=O)[O-])[C@H](OS(=O)(=O)[O-])[C@H](O[C@@H]3O[C@H](C(=O)[O-])[C@@H](O[C@@H]4O[C@H](COS(=O)(=O)[O-])[C@H](OS(=O)(=O)[O-])[C@H](O[C@@H]5O[C@H](C(=O)[O-])[C@@H](O[C@@H]6O[C@H](COS(=O)(=O)[O-])[C@H](OS(=O)(=O)[O-])[C@H](O[C@@H]7O[C@H](C(=O)[O-])[C@@H](O[C@@H]8O[C@H](COS(=O)(=O)[O-])[C@H](OS(=O)(=O)[O-])[C@H](O[C@@H]9O[C@H](C(=O)[O-])[C@@H](O[C@@H]%10O[C@H](COS(=O)(=O)[O-])[C@H](OS(=O)(=O)[O-])[C@H](O[C@@H]%11O[C@H](C(=O)[O-])[C@@H](O[C@@H]%12O[C@H](COS(=O)(=O)[O-])[C@H](OS(=O)(=O)[O-])[C@H](O[C@@H]%13O[C@H](C(=O)[O-])[C@@H](O[C@@H]%14O[C@H](COS(=O)(=O)[O-])[C@H](OS(=O)(=O)[O-])[C@H](O[C@@H]%15O[C@H](C(=O)[O-])[C@@H](O[C@@H]%16O[C@H](COS(=O)(=O)[O-])[C@H](OS(=O)(=O)[O-])[C@H](O[C@@H]%17OC(C(=O)O)=C[C@H](O[C@@H]%18O[C@@H](C)[C@@H](OS(=O)(=O)[O-])[C@@H](OS(=O)(=O)O)[C@@H]%18O)[C@H]%17O)[C@H]%16NC(C)=O)[C@H](O[C@@H]%16O[C@@H](C)[C@@H](OS(=O)(=O)[O-])[C@@H](OS(=O)(=O)O)[C@@H]%16O)[C@H]%15O)[C@H]%14NC(C)=O)[C@H](O[C@@H]%14O[C@@H](C)[C@@H](OS(=O)(=O)[O-])[C@@H](OS(=O)(=O)O)[C@@H]%14O)[C@H]%13O)[C@H]%12NC(C)=O)[C@H](O[C@@H]%12O[C@@H](C)[C@@H](OS(=O)(=O)[O-])[C@@H](OS(=O)(=O)O)[C@@H]%12O)[C@H]%11O)[C@H]%10NC(C)=O)[C@H](O[C@@H]%10O[C@@H](C)[C@@H](OS(=O)(=O)[O-])[C@@H](OS(=O)(=O)O)[C@@H]%10O)[C@H]9O)[C@H]8NC(C)=O)[C@H](O[C@@H]8O[C@@H](C)[C@@H](OS(=O)(=O)[O-])[C@@H](OS(=O)(=O)O)[C@@H]8O)[C@H]7O)[C@H]6NC(C)=O)[C@H](O[C@@H]6O[C@@H](C)[C@@H](OS(=O)(=O)[O-])[C@@H](OS(=O)(=O)O)[C@@H]6O)[C@H]5O)[C@H]4NC(C)=O)[C@H](O[C@@H]4O[C@@H](C)[C@@H](OS(=O)(=O)[O-])[C@@H](OS(=O)(=O)O)[C@@H]4O)[C@H]3O)[C@H]2NC(C)=O)[C@H](O[C@@H]2O[C@@H](C)[C@@H](OS(=O)(=O)[O-])[C@@H](OS(=O)(=O)O)[C@@H]2O)[C@H]1O.[Na+].[Na+].[Na+].[Na+].[Na+].[Na+].[Na+].[Na+].[Na+].[Na+].[Na+].[Na+].[Na+].[Na+].[Na+].[Na+].[Na+].[Na+].[Na+].[Na+].[Na+].[Na+].[Na+].[Na+].[Na+].[Na+].[Na+].[Na+].[Na+].[Na+].[Na+].[Na+].[Na+].[Na+].[Na+].[Na+].[Na+]
[1]
  inhibition: Active
[2]
  Ratio: 14.1 U
[3]
  inhibition: inactive
[4]
  inhibition: inactive
[5]
  inhibition: inactive
[6]
  Ratio: 4.46 U
[7]
  inhibition: Active
[8]
  inhibition: inactive
[9]
  inhibition: inactive
[10]
  Activity: Not Active
[11]
  inhibition: inactive
[12]
  Ratio: 426.19 U
[13]
  Ratio: 7 U
[14]
  Ratio: 478 U
[15]
  Ratio: 151 U
[16]
  Ratio: 233.18 U
[17]
  inhibition in vivo at 1.52 mg/kg: 36.4%
[18]
  Activity: Active
[19]
  Activity: Not Active
[20]
  inhibition: inactive
[21]
  Ratio: 12.57 U
[22]
  inhibition: inactive
[23]
  inhibition: inactive
[24]
  inhibition: inactive
[25]
  inhibition (active/not active): inactive
[26]
  Activity: Active
